Experimental data reported in the NIST ThermoML archive (doi:10.1016/j.tca.2010.08.002).
“And” between values parts separate entries of the source, which are not always exact repeats. Identical values can stand only once. Numbers after ± are expanded uncertainties.

Test: molar heat capacity at saturation pressure
Conditions: Crystal, Vacuum adiabatic calorimetry

CCCCn1cc[n+](C)c1.O=S(=O)([O-])C(F)(F)F [1-butyl-3-methylimidazolium trifluoromethanesulfonate]
Conditions | molar heat capacity
5.202 K | 1.664 ± 0.032 J/K/mol
5.437 K | 1.901 ± 0.034 J/K/mol
5.715 K | 2.221 ± 0.038 J/K/mol
5.999 K | 2.57 ± 0.041 J/K/mol
6.317 K | 2.999 ± 0.046 J/K/mol
6.671 K | 3.523 ± 0.05 J/K/mol
7.032 K | 4.097 ± 0.056 J/K/mol
7.395 K | 4.732 ± 0.061 J/K/mol
7.763 K | 5.393 ± 0.066 J/K/mol
8.135 K | 6.123 ± 0.072 J/K/mol
8.512 K | 6.893 ± 0.078 J/K/mol
8.894 K | 7.698 ± 0.084 J/K/mol
9.277 K | 8.558 ± 0.09 J/K/mol
9.664 K | 9.444 ± 0.096 J/K/mol
10.05 K | 10.36 ± 0.1 J/K/mol
10.55 K | 11.59 ± 0.11 J/K/mol
11.16 K | 13.11 ± 0.12 J/K/mol
11.77 K | 14.7 ± 0.13 J/K/mol
12.38 K | 16.35 ± 0.14 J/K/mol
13 K | 18.04 ± 0.15 J/K/mol
13.62 K | 19.77 ± 0.16 J/K/mol
14.25 K | 21.58 ± 0.17 J/K/mol
14.88 K | 23.41 ± 0.18 J/K/mol
15.62 K | 25.59 ± 0.19 J/K/mol
16.48 K | 28.21 ± 0.2 J/K/mol
17.34 K | 30.75 ± 0.21 J/K/mol
18.21 K | 33.27 ± 0.22 J/K/mol
19.07 K | 35.79 ± 0.23 J/K/mol
19.94 K | 38.35 ± 0.23 J/K/mol
21.15 K | 41.92 ± 0.24 J/K/mol
22.72 K | 46.46 ± 0.25 J/K/mol
24.29 K | 51.02 ± 0.25 J/K/mol
25.87 K | 55.46 ± 0.26 J/K/mol
27.45 K | 59.71 ± 0.25 J/K/mol
28.86 K | 63.39 ± 0.25 J/K/mol
30.34 K | 67.25 ± 0.18 J/K/mol
32.09 K | 71.61 ± 0.19 J/K/mol
34 K | 76.13 ± 0.2 J/K/mol
35.92 K | 80.4 ± 0.21 J/K/mol
37.84 K | 84.48 ± 0.21 J/K/mol
39.76 K | 88.4 ± 0.22 J/K/mol
41.78 K | 92.42 ± 0.23 J/K/mol
43.9 K | 96.53 ± 0.24 J/K/mol
46.01 K | 100.5 ± 0.2 J/K/mol
48.13 K | 104.3 ± 0.3 J/K/mol
50.25 K | 108 ± 0.3 J/K/mol
52.38 K | 111.5 ± 0.3 J/K/mol
54.5 K | 114.9 ± 0.3 J/K/mol
56.63 K | 118.1 ± 0.3 J/K/mol
58.75 K | 121.2 ± 0.3 J/K/mol
60.89 K | 124.2 ± 0.3 J/K/mol
63.03 K | 127.2 ± 0.3 J/K/mol
65.17 K | 130.1 ± 0.3 J/K/mol
67.3 K | 133 ± 0.3 J/K/mol
69.44 K | 135.8 ± 0.3 J/K/mol
71.69 K | 138.7 ± 0.3 J/K/mol
74.03 K | 141.6 ± 0.3 J/K/mol
76.39 K | 144.5 ± 0.3 J/K/mol
78.69 K | 147.6 ± 0.3 J/K/mol and 147.7 ± 0.3 J/K/mol
78.74 K | 147.4 ± 0.3 J/K/mol
80.59 K | 149.7 ± 0.3 J/K/mol
80.61 K | 149.7 ± 0.3 J/K/mol
81.1 K | 150.1 ± 0.3 J/K/mol
82.36 K | 151.6 ± 0.3 J/K/mol
82.4 K | 151.6 ± 0.3 J/K/mol
83.47 K | 152.9 ± 0.4 J/K/mol
84.13 K | 153.6 ± 0.4 J/K/mol
84.19 K | 153.7 ± 0.4 J/K/mol
85.92 K | 155.7 ± 0.4 J/K/mol
86 K | 155.7 ± 0.4 J/K/mol
87.73 K | 157.6 ± 0.4 J/K/mol
87.81 K | 157.6 ± 0.4 J/K/mol
89.54 K | 159.5 ± 0.4 J/K/mol
89.64 K | 159.6 ± 0.4 J/K/mol
91.35 K | 161.5 ± 0.4 J/K/mol
91.48 K | 161.6 ± 0.4 J/K/mol
93.18 K | 163.4 ± 0.4 J/K/mol
93.33 K | 163.6 ± 0.4 J/K/mol
95.02 K | 165.5 ± 0.4 J/K/mol
95.19 K | 165.6 ± 0.4 J/K/mol
96.87 K | 167.3 ± 0.4 J/K/mol
97.05 K | 167.5 ± 0.4 J/K/mol
98.72 K | 169.2 ± 0.4 J/K/mol
98.92 K | 169.4 ± 0.4 J/K/mol
100.59 K | 171.1 ± 0.4 J/K/mol
100.8 K | 171.4 ± 0.4 J/K/mol
102.64 K | 173.1 ± 0.4 J/K/mol
102.7 K | 173.3 ± 0.4 J/K/mol
104.6 K | 175.1 ± 0.4 J/K/mol
104.89 K | 175.5 ± 0.4 J/K/mol
106.5 K | 177 ± 0.4 J/K/mol
107.15 K | 177.7 ± 0.4 J/K/mol
108.41 K | 178.9 ± 0.4 J/K/mol
109.42 K | 179.9 ± 0.4 J/K/mol
110.33 K | 180.8 ± 0.4 J/K/mol
111.71 K | 182.1 ± 0.4 J/K/mol
112.25 K | 182.6 ± 0.4 J/K/mol
114.01 K | 184.4 ± 0.4 J/K/mol
114.17 K | 184.5 ± 0.4 J/K/mol
116.1 K | 186.5 ± 0.4 J/K/mol
116.31 K | 186.8 ± 0.4 J/K/mol
118.04 K | 189.9 ± 0.4 J/K/mol
118.61 K | 190.7 ± 0.4 J/K/mol
119.97 K | 192.6 ± 0.4 J/K/mol
120.92 K | 192.7 ± 0.4 J/K/mol
121.91 K | 193.4 ± 0.4 J/K/mol
123.24 K | 193.9 ± 0.4 J/K/mol
123.85 K | 194.3 ± 0.4 J/K/mol
125.56 K | 195.3 ± 0.4 J/K/mol
125.8 K | 195.5 ± 0.4 J/K/mol
127.76 K | 196.9 ± 0.4 J/K/mol
127.9 K | 197 ± 0.4 J/K/mol
129.72 K | 198.4 ± 0.4 J/K/mol
130.24 K | 198.8 ± 0.4 J/K/mol
131.68 K | 200 ± 0.4 J/K/mol
132.58 K | 200.7 ± 0.4 J/K/mol
133.65 K | 201.6 ± 0.4 J/K/mol
134.93 K | 202.7 ± 0.4 J/K/mol
135.63 K | 203.2 ± 0.4 J/K/mol
137.28 K | 204.7 ± 0.4 J/K/mol
137.6 K | 204.9 ± 0.4 J/K/mol
139.58 K | 206.5 ± 0.4 J/K/mol
139.64 K | 206.6 ± 0.4 J/K/mol
141.56 K | 208.3 ± 0.4 J/K/mol
142 K | 208.7 ± 0.4 J/K/mol
143.55 K | 210.1 ± 0.4 J/K/mol
144.36 K | 210.9 ± 0.4 J/K/mol
145.53 K | 211.9 ± 0.4 J/K/mol
146.73 K | 213 ± 0.4 J/K/mol
147.51 K | 213.7 ± 0.4 J/K/mol
149.09 K | 215.2 ± 0.4 J/K/mol
149.5 K | 215.5 ± 0.4 J/K/mol
151.45 K | 217.4 ± 0.4 J/K/mol
151.48 K | 217.4 ± 0.4 J/K/mol
153.46 K | 219.3 ± 0.4 J/K/mol
153.82 K | 219.6 ± 0.4 J/K/mol
155.44 K | 221.2 ± 0.4 J/K/mol
156.18 K | 221.9 ± 0.4 J/K/mol
157.42 K | 223.1 ± 0.4 J/K/mol
158.55 K | 224.2 ± 0.4 J/K/mol
159.41 K | 225.1 ± 0.4 J/K/mol
160.91 K | 226.5 ± 0.4 J/K/mol
161.39 K | 226.9 ± 0.4 J/K/mol
163.28 K | 228.8 ± 0.4 J/K/mol
163.37 K | 228.9 ± 0.4 J/K/mol
165.35 K | 230.9 ± 0.4 J/K/mol
165.64 K | 231.1 ± 0.4 J/K/mol
167.32 K | 232.8 ± 0.4 J/K/mol
168 K | 233.4 ± 0.4 J/K/mol
169.3 K | 234.8 ± 0.4 J/K/mol
